Reference: patent US11285156B2, “Substituted piperazines as KRAS G12C inhibitors” (Amgen Inc., priority 2018, dated 2022)

Biological target: GDP-bound KRAS protein (aa 1-169), containing both G12C and C118A amino acid substitutions (Homo sapiens (Human), UniProt P01116, C118A/G12C)
Assay: Coupled nucleotide exchange assay (SOS-mediated nucleotide exchange, AlphaScreen)
Type: biochemical
Settings: 5 min compound pre-incubation

GDP-bound KRAS protein (aa 1-169), containing both G12C and C118A amino acid substitutions, sequence (P01116 other isoform, or with tags, fused parts or gaps G12C/C118A): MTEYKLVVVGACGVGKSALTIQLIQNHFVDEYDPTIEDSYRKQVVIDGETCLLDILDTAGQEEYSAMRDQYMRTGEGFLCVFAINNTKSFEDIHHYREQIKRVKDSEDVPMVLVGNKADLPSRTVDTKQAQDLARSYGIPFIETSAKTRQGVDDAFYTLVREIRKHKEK

Point of comparison: `C=CC(=O)N1C[C@H](C)N(c2nc(=O)n(-c3c(C)ccnc3C(C)C)c3nc(C45CCCCC4C5)c(Cl)cc23)C[C@H]1C` (atropisomer, axis not shown; (M)) [Example 207, (M)-6-Chloro-4-[(2S,5R)-2,5-dimethyl-4-prop-2-enoyl-piperazin-1-yl]-1-(2-isopropyl-4-methyl-3-pyridyl)-7-[norcaran-1-yl]pyrido[2,3-d]pyrimidin-2-one], “Coupled exchange IC50 (5 min; μM)” value 0.932 µM. Against it:
- C=CC(=O)N1C[C@H](C)N(c2nc(=O)n(-c3c(C)ccnc3C(C)C)c3nc(N4CCCCC4C)c(Cl)cc23)C[C@H]1C (mixture of isomers) [Example 69-12, (M)-6-Chloro-4-[(2S,5R)-2,5-dimethyl-4-prop-2-enoyl-piperazin-1-yl]-1-(2-isopropyl-4-methyl-3-pyridyl)-7-[(2SR)-2-methyl-1-piperidyl]pyrido[2,3-d]pyrimidin-2-one] — 3.1-fold higher, 2.88 µM

Same assay, conditions: read-out: Coupled exchange IC50 (5 min; μM); 5 min compound pre-incubation

Point of comparison: `C=CC(=O)N1C[C@H](C)N(c2nc(=O)n(-c3c(C)ccnc3C(C)C)c3nc(-c4ccccc4C(=O)NC)c(F)cc23)C[C@H]1C` (atropisomer, axis not shown; (M)) [Example 94-18], IC50 0.749 µM. Against it:
- C=CC(=O)N1C[C@H](C)N(c2nc(=O)n(-c3c(C)ccnc3C(C)C)c3nc(-c4cc(OC)ccc4Cl)c(F)cc23)C[C@H]1C (atropisomer, axis not shown; (M)) [Example 94-6, (M)-7-(2-chloro-5-methoxy-phenyl)-4-[(2S,5R)-2,5-dimethyl-4-prop-2-enoyl-piperazin-1-yl]-6-fluoro-1-(2-isopropyl-4-methyl-3-pyridyl)pyrido [2,3-d]pyrimidin-2-one] — 1.6-fold lower, 0.468 µM
- C=CC(=O)N1C[C@H](C)N(c2nc(=O)n(-c3c(C)ccnc3C(C)C)c3nc(-c4c(C)cccc4C)c(F)cc23)C[C@H]1C (atropisomer, axis not shown; (M)) [Example 94-9, (M)-7-(2,6-Dimethylphenyl)-4-[(2S,5R)-2,5-dimethyl-4-prop-2-enoyl-piperazin-1-yl]-6-fluoro-1-(2-isopropyl-4-methyl-3-pyridyl)pyrido [2,3-d]pyrimidin-2-one] — 1.6-fold lower, 0.469 µM
- C=CC(=O)N1C[C@H](C)N(c2nc(=O)n(-c3c(C)ccnc3C(C)C)c3nc(-c4c(F)cccc4F)c(F)cc23)C[C@H]1C (atropisomer, axis not shown; (M)) [Example 94-11, (M)-7-(2,6-Difluorophenyl)-4-[(2S,5R)-2,5-dimethyl-4-prop-2-enoyl-piperazin-1-yl]-6-fluoro-1-(2-isopropyl-4-methyl-3-pyridyl)pyrido [2,3-d]pyrimidin-2-one] — within 1.5-fold, 0.844 µM
- C=CC(=O)N1C[C@H](C)N(c2nc(=O)n(-c3c(C)ccnc3C(C)C)c3nc(-c4ccccc4C(F)F)c(F)cc23)C[C@H]1C (atropisomer, axis not shown; (M)) [Example 94-13, (M)-7-[2-(Difluoromethyl)phenyl]-4-[(2S,5R)-2,5-dimethyl-4-prop-2-enoyl-piperazin-1-yl]-6-fluoro-1-(2-isopropyl-4-methyl-3-pyridyl)pyrido [2,3-d]pyrimidin-2-one] — 1.9-fold lower, 0.387 µM
- C=CC(=O)N1C[C@H](C)N(c2nc(=O)n(-c3c(C)ccnc3C(C)C)c3nc(-c4ccccc4C(=O)O)c(F)cc23)C[C@H]1C (atropisomer, axis not shown; (M)) [Example 94-15, (M)-2-[4-[(2S,5R)-2,5-Dimethyl-4-prop-2-enoyl-piperazin-1-yl]-6-fluoro-1-(2-isopropyl-4-methyl-3-pyridyl)-2-oxo-pyrido[2,3-a]pyrimidin-7-yl]benzoic acid] — within 1.5-fold, 0.963 µM
- C=CC(=O)N1C[C@H](C)N(c2nc(=O)n(-c3c(C)ccnc3C(C)C)c3nc(-c4ccccc4C(N)=O)c(F)cc23)C[C@H]1C (atropisomer, axis not shown; (M)) [Example 94-17, (M)-2-[4-[(2S,5R)-2,5-Dimethyl-4-prop-2-enoyl-piperazin-1-yl]-6-fluoro-1-(2-isopropyl-4-methyl-3-pyridyl)-2-oxo-pyrido[2,3-d]pyrimidin-7-yl]benzamide] — 1.9-fold lower, 0.39 µM
- C=CC(=O)N1C[C@H](C)N(c2nc(=O)n(-c3c(C)ccnc3C(C)C)c3nc(-c4ccccc4N)c(F)cc23)C[C@H]1C (atropisomer, axis not shown; (M)) [Example 94-20, (M)-7-(2-Aminophenyl)-4-[(2S,5R)-2,5-dimethyl-4-prop-2-enoyl-piperazin-1-yl]-6-fluoro-1-(2-isopropyl-4-methyl-3-pyridyl)pyrido [2,3-d]pyrimidin-2-one] — 1.7-fold lower, 0.452 µM
- C=CC(=O)N1C[C@H](C)N(c2nc(=O)n(-c3c(C)ccnc3C(C)C)c3nc(-c4cc(OC)cc5ccccc45)c(F)cc23)C[C@H]1C (atropisomer, axis not shown; (M)) [Example 94-21, (M)-4-[(2S,5R)-2,5-Dimethyl-4-prop-2-enoyl-piperazin-1-yl]-6-fluoro-1-(2-isopropyl-4-methyl-3-pyridyl)-7-(3-methoxy-1-naphthyl)pyrido[2,3-d]pyrimidin-2-one] — 43-fold higher, 32.4 µM
- C=CC(=O)N1C[C@H](C)N(c2nc(=O)n(-c3c(C)ccnc3C(C)C)c3nc(CC(C)(C)C)c(Cl)cc23)C[C@H]1C (atropisomer, axis not shown; (M)) [Example 95-2, (M)-6-chloro-4-[(2S,5R)-2,5-dimethyl-4-prop-2-enoyl-piperazin-1-yl]-7-(2,2-dimethylpropyl)-1-(2-isopropyl-4-methyl-3-pyridyl)pyrido [2,3-d]pyrimidin-2-one] — within 1.5-fold, 1.04 µM
- C=CC(=O)N1C[C@H](C)N(c2nc(=O)n(-c3c(C)ccnc3C(C)C)c3nc(C4CCCC4)c(Cl)cc23)C[C@H]1C (atropisomer, axis not shown; (M)) [Example 95-3, (M)-6-chloro-7-cyclopentyl-4-[(2S,5R)-2,5-dimethyl-4-prop-2-enoyl-piperazin-1-yl]-1-(2-isopropyl-4-methyl-3-pyridyl)pyrido [2,3-d]pyrimidin-2-one] — within 1.5-fold, 0.631 µM
- C=CC(=O)N1C[C@H](C)N(c2nc(=O)n(-c3c(C)ccnc3C(C)C)c3nc(C4CC4)c(Cl)cc23)C[C@H]1C (atropisomer, axis not shown; (M)) [Example 95-4, (M)-6-chloro-7-cyclopropyl-4-[(2S,5R)-2,5-dimethyl-4-prop-2-enoyl-piperazin-1-yl]-1-(2-isopropyl-4-methyl-3-pyridyl)pyrido [2,3-d]pyrimidin-2-one] — within 1.5-fold, 0.571 µM
- C=CC(=O)N1C[C@H](C)N(c2nc(=O)n(-c3c(C)ccnc3C(C)C)c3nc(CCC)c(Cl)cc23)C[C@H]1C (atropisomer, axis not shown; (M)) [Example 95-6, (M)-6-chloro-4-[(2S,5R)-2,5-dimethyl-4-prop-2-enoyl-piperazin-1-yl]-1-(2-isopropyl-4-methyl-3-pyridyl)-7-propyl-pyrido[2,3-d]pyrimidin-2-one] — within 1.5-fold, 0.823 µM
- C=CC(=O)N1C[C@H](C)N(c2nc(=O)n(-c3c(C)ccnc3C(C)C)c3nc(C#CC(C)(C)C)c(Cl)cc23)C[C@H]1C (atropisomer, axis not shown; (M)) [Example 95-7, (M)-6-chloro~7-(3,3-dimethylbut-1-ynyl)-4-[(2S,5R)-2,5-dimethyl-4-prop-2-enoyl-piperazin-1-yl]-1-(2-isopropyl-4-methyl-3-pyridyl)pyrido [2,3-d]pyrimidin-2-one] — 45-fold higher, 34 µM
- C=CC(=O)N1C[C@H](C)N(c2nc(=O)n(-c3c(C)ccnc3C(C)C)c3nc(-c4ncccc4C)c(Cl)cc23)C[C@H]1C (atropisomer, axis not shown; (M)) [Example 96-1, (M)-6-Chloro-4-[(2S,5R)-2,5-dimethyl-4-prop-2-enoyl-piperazin-1-yl]-1-(2-isopropyl-4-methyl-3-pyridyl)-7-(3-methyl-2-pyridyl)pyrido[2,3-d]pyrimidin-2-one] — 2.2-fold lower, 0.345 µM
- C=CC(=O)N1C[C@H](C)N(c2nc(=O)n(-c3c(C)ccnc3C(C)C)c3nc(-c4ccccc4N(C)C(C)=O)c(Cl)cc23)C[C@H]1C (atropisomer, axis not shown; (M)) [Example 129-3, (M)-N-[2-[6-Chloro-4-[(2S,5R)-2,5-dimethyl-4-prop-2-enoyl-piperazin-1-yl]-1-(2-isopropyl-4-methyl-3-pyridyl)-2-oxo-pyrido[2,3-d]pyrimidin-7-yl]phenyl]-N-methyl-acetamide] — 2.1-fold lower, 0.352 µM
- C=CC(=O)N1C[C@H](C)N(c2nc(=O)n(-c3c(C)ccnc3C(C)C)c3nc(-c4cc(O)cc5ccccc45)c(F)cc23)C[C@H]1C (atropisomer, axis not shown; (M)) [Example 132-2, (M)-4-[(2S,5R)-2,5-dimethyl-4-prop-2-enoyl-piperazin-1-yl]-6-fluoro-7-(3-hydroxy-1-naphthyl)-1-(2-isopropyl-4-methyl-3-pyridyl)pyrido[2,3-d]pyrimidin-2-one] — within 1.5-fold, 0.57 µM
- C=CC(=O)N1CCN(c2nc(=O)n(-c3c(C)ccnc3C(C)C)c3nc(Cl)c(Cl)cc23)CC1CC#N (atropisomer, axis not shown; (M)) [Example 144-2, (M)-2-[4-[6,7-Dichloro-1-(2-isopropyl-4-methyl-3-pyridyl)-2-oxo-pyrido[2,3-d]pyrimidin-4-yl]-1-prop-2-enoyl-piperazin-2-yl]acetonitrile] — 33-fold higher, 24.9 µM
- C=CC(=O)N1CCN(c2nc(=O)n(-c3c(C)ccnc3C(C)C)c3nc(Cl)c(Cl)cc23)CC1CC#N (atropisomer, axis not shown; (M)) [Example 144-2-1, (M)-2-[4-[6,7-Dichloro-1-(2-isopropyl-4-methyl-3-pyridyl)-2-oxo-pyrido[2,3-d]pyrimidin-4-yl]-1-prop-2-enoyl-piperazin-2-yl]acetonitrile] — 85-fold higher, 63.7 µM
- C=CC(=O)N1CCN(c2nc(=O)n(-c3c(C)ccnc3C(C)C)c3nc(-c4ccccc4F)c(Cl)cc23)[C@@H]2C[C@@H]21 (atropisomer, axis not shown; (M)) [Example 222-1, (M)-4-((1R,6S)-5-Acryloyl-2,5-diazabicyclo[4.1.0]heptan-2-yl)-6-chloro-7-(2-fluorophenyl)-1-(2-isopropyl-4-methylpyridin-3-yl)pyrido[2,3-d]pyrimidin-2(1H)-one] — within 1.5-fold, 0.95 µM
- C=CC(=O)N1C[C@H](C)N(c2nc(=O)n(-c3c(CN4CCCC4)cccc3C(C)C)c3nc(-c4ccccc4F)c(Cl)cc23)C[C@H]1C (single isomer, unassigned) [Example 80-10-1] — 2.7-fold higher, 2.04 µM
